Laboratory results published in ChEMBL document CHEMBL1140528, “A novel flavonoid from Lespedeza virgata (Thunb.) DC.: structural elucidation and antioxidative activity” (Bioorg Med Chem Lett, 2007).
≈ marks a conversion by molar mass, not a printed value. Calls of active or inactive are those of the source. No cut-off for these calls is given here.

Tests used:
Type in all cases: functional
[1] = Antioxidant activity assessed as superoxide radical anion scavenging activity at 0.5 mg/ml by hypoxanthine NBT method
[2] = Antioxidant activity assessed as superoxide radical anion scavenging activity at 0.2 mg/ml by hypoxanthine NBT method
[3] = Antioxidant activity assessed as superoxide radical anion scavenging activity by hypoxanthine NBT method

Row | Compound | Activity [1] [%] | Activity [2] | IC50 [3] [µg/mL]
1 | C[C@@H]1O[C@@H](Oc2c(-c3ccc(O)cc3)oc3cc(O)cc(O)c3c2=O)[C@H](O)[C@H](O)[C@H]1O | 29.9 |  | 
2 | COc1cc2c(cc1[C@@H]1CC(=O)c3c(O)c(C)c4c(c3O1)C=CC(C)(C)O4)C=CC(C)(C)O2 | 95.8 | Active | 140 (≈ 312 µM)
3 | O=c1c(O)c(-c2ccc(O)c(O)c2)oc2cc(O[C@@H]3O[C@H](CO)[C@@H](O)[C@H](O)[C@H]3O)cc(O)c12 | 71.7 |  | 
4 | C[C@@H]1O[C@@H](Oc2cc(O)c3c(=O)c(O[C@@H]4O[C@@H](C)[C@H](O)[C@@H](O)[C@H]4O)c(-c4ccc(O)cc4)oc3c2)[C@H](O)[C@H](O)[C@H]1O | 17.6 |  | 
5 | O=c1c(O[C@@H]2O[C@H](CO)[C@@H](O)[C@H](O)[C@H]2O)c(-c2ccc(O)cc2)oc2cc(O)cc(O)c12 | 51.7 |  | 
6 | C[C@@H]1O[C@@H](Oc2c(-c3ccc(O)c(O)c3)oc3cc(O)cc(O)c3c2=O)[C@H](O)[C@H](O)[C@H]1O | 88.9 |  | 
